≈ marks a conversion by molar mass, not a printed value. Where “and” joins values, the source holds several entries; their conditions need not be identical. Equal entries are not always repeated. Where two headings read alike, the source gives them in different places. Marks after values point to notes of the source that are not given here.
Key:
[1] = system: O. gutturosa adult male worms; assay: O. gutturosa adult worm ex vivo assay, motility; type: cell-based, Onchocerca gutturosa; conditions: Onchocerca gutturosa
Outline: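 Adult male O. gutturosa from naturally infected cattle were cultured in supplemented MEM at 37 °C, 5% CO2, with four worms per concentration in serial 1-in-4 dilutions. Motility (0–10 scale) was scored every 24 h to 120 h. EC50 (geomean, n=2) for motility reduction came from 4PL fits, and viability was checked by MTT at 120 h.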

Mouse pharmacokinetics = type: in vivo; conditions: male CD-1 mouse, PO 30 mg/kg suspension
Excerpt: All animal experiments were approved by the Institutional Animal Care and Use Committee (IACUC) of Bristol Myers Squibb.

[2] = Liver microsome metabolic stability assay, rat; type: in vitro ADME; conditions: Table 1; 3 μM, 30 min
Procedure: (§1) Liver Microsome Metabolic Stability Assay: Incubations were performed at 37 °C in a Dubnoff Shaking water bath using 2 mL 96-well incubation plates. Liver microsome protein concentration was 0.3 mg/mL the final concentration of NADPH was 1 mM. Substrate concentrations are 3µM, incubation time is 30 minutes, and all tests are done in triplicate. The incubation was conducted in 200 mM Phosphate buffer containing 2 mM magnesium chloride, pH=7.4 and the total incubation volume was 0.5 mL. Samples were analyzed via LC-MS/MS and reported as percentage remaining after 30minute incubation, which can then be converted to half-life and intrinsic clearance. […]

[3] = Kinetic solubility measurement; type: physicochemical; conditions: for solubility kinetic at 24 h: 10 mM DMSO stock solutions
Outline: (§2)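 Human and rat liver microsomes (0.3 mg/mL) with 1 mM NADPH and 3µM substrate, 30 minutes at 37 °C in pH 7.4 phosphate/MgCl2, triplicate; LC-MS/MS percentage remaining. LogD: octanol/aqueous buffer (pH 7.4, 2.2, 6.8, 5), 24 h shaking at room temperature. Kinetic solubility: 200 µM, 2% DMSO, 24 h, filtered.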

THLE-2 cells = assay: THLE-2 cytotoxicity assay (ATP); conditions: Homo sapiens, THLE-2, 24 h, read-out: THLE IC50
Procedure: In vitro cytotoxicity of select compounds was tested in a “normal” proliferating transformed human liver epithelial (THLE-2) cell line.[35] Compounds were incubated in THLE-2 cells for 24 and 72 h, and adenosine triphosphate (ATP) levels were used as an indicator of cell viability.
THLE-2 Cytotoxicity Assay: THLE-2 cells (ATCC, catalog #CRL-2706) were plated in LHC-8 Media (Invitrogen, catalog #12679015) supplemented with fetal bovine serum (GE, catalog #SH30088.03), 70 ng/mL phosphoethanolamine (Sigma, catalog #P0503), 5 ng/mL EGF (Sigma, catalog #E9644), 1X penicillin/streptomycin (Gibco, catalog #15140148), and 1X glutamine (Invitrogen, catalog #25030024) in 384-well clear-bottom, black walled plates at a density of 3750 cells/well (15μL/well). After plating, cells were incubated overnight at 37°C in an incubator with 5% CO2 and 90% humidity. Compounds were first serially diluted in dimethyl sulfoxide then diluted in LHC-8 media growth media to 2X concentration. Cells were dosed with 15μL of each dose for final concentrations between 0.01 – 300 μM. Cells were incubated with compounds for 24 or 72 hours. Cytotoxicity was determined with Cell Titer Glo Luminescent ATP Assay (Promega, catalog #G7573) according to the manufacturer’s instructions. Tamoxifen (Sigma, catalog #BC9353476) was used as a positive control. levels at each dose were normalized to that of cells dosed with dimethyl sulfoxide vehicle alone and IC50 values were calculated from non-linear regression fits of dose-response curves plotted

[4] = Liver microsome metabolic stability assay, human; type: in vitro ADME; conditions: 3 μM, 30 min
Procedure: as §1

[5] = system: O. gutturosa adult male worms; assay: O. gutturosa adult worm ex vivo assay, MTT/formazan viability; type: cell-based, Onchocerca gutturosa; conditions: Onchocerca gutturosa, supplement; SD in brackets in the PDF table; read-out: O. gutturosa EC50 (uM) MTT viability inhibition
Outline: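 Adult male worms from naturally infected Gambian cattle were kept individually in MEM with 10% newborn calf serum at 37 °C, 5% CO2; four worms per concentration. Motility was scored 0-10 every 24 h to 120 h as a percentage of maximum, with ≥50% reduction versus untreated counted active. Afterwards, MTT (0.5 mg/mL, 30 min) formazan was read at 490 nm.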

[6] = LogD measurement (octanol-water); type: physicochemical
Outline: as §2

[7] = Liver microsome metabolic stability assay, mouse; type: in vitro ADME; conditions: 3 μM, 30 min; for Rat Microsomes: Tables 2 and 3, footnote: tested in the mouse liver microsome assay
Procedure: as §1

P-glycoprotein (MDR1) = biological target: T1, P-glycoprotein (MDR1) (Homo sapiens, UniProt P08183); assay: MDCK/MDR1 permeability and efflux; type: in vitro ADME; conditions: dog
T1 construct: expressed in transfected cells; host or cells: MDCK (Madin Darby canine kidney) cells
T1 sequence (P08183 whole entry): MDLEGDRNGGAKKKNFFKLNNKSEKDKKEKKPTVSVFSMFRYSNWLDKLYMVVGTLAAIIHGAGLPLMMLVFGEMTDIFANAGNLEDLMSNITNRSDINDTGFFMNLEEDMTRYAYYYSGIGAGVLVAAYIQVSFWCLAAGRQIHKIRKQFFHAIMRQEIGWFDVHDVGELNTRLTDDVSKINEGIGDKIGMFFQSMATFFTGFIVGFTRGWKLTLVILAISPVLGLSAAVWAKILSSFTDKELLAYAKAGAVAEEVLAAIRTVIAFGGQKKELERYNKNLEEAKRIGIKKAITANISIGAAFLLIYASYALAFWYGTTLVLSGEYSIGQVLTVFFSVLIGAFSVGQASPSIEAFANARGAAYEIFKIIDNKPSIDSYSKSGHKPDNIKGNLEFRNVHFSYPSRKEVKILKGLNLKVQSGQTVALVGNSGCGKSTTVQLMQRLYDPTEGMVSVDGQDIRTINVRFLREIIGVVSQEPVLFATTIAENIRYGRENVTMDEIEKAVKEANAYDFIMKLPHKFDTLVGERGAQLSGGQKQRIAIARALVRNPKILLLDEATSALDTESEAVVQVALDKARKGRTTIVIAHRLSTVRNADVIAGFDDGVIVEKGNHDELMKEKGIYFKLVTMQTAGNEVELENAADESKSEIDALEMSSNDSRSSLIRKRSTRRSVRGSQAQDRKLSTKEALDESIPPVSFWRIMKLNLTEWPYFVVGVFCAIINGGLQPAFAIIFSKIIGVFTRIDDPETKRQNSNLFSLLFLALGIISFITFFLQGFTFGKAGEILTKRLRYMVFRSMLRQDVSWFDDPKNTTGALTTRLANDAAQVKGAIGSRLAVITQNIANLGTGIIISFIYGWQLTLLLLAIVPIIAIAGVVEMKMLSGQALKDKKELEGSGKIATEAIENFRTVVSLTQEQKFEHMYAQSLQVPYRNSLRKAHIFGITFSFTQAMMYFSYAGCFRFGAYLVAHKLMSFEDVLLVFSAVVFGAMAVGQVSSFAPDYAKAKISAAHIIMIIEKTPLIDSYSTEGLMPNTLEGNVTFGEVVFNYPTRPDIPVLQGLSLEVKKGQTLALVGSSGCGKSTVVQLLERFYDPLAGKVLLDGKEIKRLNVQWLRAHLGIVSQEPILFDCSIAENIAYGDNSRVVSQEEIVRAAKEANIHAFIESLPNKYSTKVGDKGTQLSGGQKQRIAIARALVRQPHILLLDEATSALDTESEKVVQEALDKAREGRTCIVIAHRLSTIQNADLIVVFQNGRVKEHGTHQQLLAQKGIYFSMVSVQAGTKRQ
Excerpt: (§3) Our approach was to target compounds with efflux ratio (ER) >2.5 in the MDCK cell line transfected with MDR1 (multidrug resistance-1 transfected Madin Darby canine kidney cell line). […] Our goal was to impart structural elements designed to impart Pgp recognition.

P-gp (MDR1) = biological target: T2, P-gp (MDR1) (Homo sapiens, UniProt P08183); assay: MDCK/MDR1 permeability and efflux; type: in vitro ADME; conditions: dog
T2 construct: expressed in transfected cells; host or cells: MDCK (Madin Darby canine kidney) cells
T2 sequence (P08183 whole entry): as above
Excerpt: as §3

[8] = biological target: T3, hERG potassium channels (KCNH2, expressed in HEK293 cells) (Homo sapiens, UniProt Q12809); assay: hERG inhibition; type: cell-based; conditions: supplement
T3 construct: expressed in transfected cells
T3 sequence (Q12809 whole entry): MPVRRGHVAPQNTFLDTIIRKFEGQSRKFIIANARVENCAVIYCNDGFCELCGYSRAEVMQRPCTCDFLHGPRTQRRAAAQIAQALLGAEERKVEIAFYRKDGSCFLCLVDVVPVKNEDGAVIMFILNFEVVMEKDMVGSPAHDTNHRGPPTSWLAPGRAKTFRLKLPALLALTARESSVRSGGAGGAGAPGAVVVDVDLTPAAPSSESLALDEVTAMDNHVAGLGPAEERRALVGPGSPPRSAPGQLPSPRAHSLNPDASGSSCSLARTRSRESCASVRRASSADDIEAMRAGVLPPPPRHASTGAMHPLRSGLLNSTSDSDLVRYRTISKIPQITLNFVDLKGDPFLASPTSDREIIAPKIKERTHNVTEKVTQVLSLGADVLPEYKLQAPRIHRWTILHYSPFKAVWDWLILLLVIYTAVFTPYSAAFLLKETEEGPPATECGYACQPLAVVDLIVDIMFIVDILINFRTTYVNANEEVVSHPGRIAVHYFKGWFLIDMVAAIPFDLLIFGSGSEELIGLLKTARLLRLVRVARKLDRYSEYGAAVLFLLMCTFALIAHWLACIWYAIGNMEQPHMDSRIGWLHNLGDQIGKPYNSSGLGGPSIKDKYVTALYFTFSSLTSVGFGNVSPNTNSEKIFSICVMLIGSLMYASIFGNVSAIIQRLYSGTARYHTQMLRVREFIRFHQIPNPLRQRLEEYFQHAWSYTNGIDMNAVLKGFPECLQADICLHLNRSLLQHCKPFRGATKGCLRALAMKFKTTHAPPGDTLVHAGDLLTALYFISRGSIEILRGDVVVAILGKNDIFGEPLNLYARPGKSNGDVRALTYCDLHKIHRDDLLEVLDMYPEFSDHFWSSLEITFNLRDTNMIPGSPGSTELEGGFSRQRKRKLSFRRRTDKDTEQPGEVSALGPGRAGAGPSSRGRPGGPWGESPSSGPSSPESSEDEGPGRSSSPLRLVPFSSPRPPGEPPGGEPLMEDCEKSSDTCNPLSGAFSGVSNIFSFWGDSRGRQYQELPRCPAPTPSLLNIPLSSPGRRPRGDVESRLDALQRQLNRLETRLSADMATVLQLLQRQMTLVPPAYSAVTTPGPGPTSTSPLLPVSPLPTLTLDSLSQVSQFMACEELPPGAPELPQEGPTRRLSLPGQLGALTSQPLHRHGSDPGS

[9] = system: L. sigmodontis adult worms; assay: In vivo efficacy, L. sigmodontis-infected jirds; set-up: species or system jird (Meriones unguiculatus); conditions: 2 mg/kg QD 5d SC
[10] = system: L. sigmodontis adult worms; conditions: mouse, in vivo
[11] = read-out: O. gutturosa EC50 μM (SD), ex vivo adult worm motility reduction, SD in brackets
[12] = read-out: O. gutturosa EC50 (uM) motility inhibition, supplement, SD in brackets in the PDF table
[13] = supplement, read-out: measured logD

Row | Molecule | EC50 [1, 11] | Rat Microsomes [2] | solubility kinetic at 24 h [3] | Human Microsomes [4] | EC50 [5] | EC50 [1, 12] | logD at 24 h [6, 13] | Rat Microsomes [7] | logD at 24 h ([6]; pH 7.4, read-out: logD) | also measured
1 | COc1ccc(Nc2nc(-c3ccccn3)ns2)nc1 [Compound 2] | 1.7 µM | 78 % remaining | 62.7 µM (≈ 17.9 µg/mL) | 90 % remaining | 1.5 µM |  |  |  |  | AUC(0-inf) (Mouse pharmacokinetics): 3.61 ± 0.86 µM·h; Cmax (Mouse pharmacokinetics): 1260 ± 290 nM; Tmax (Mouse pharmacokinetics): 1.3 ± 0.5 h; IC50 (THLE-2 cells): > 300000 nM
2 | Cc1cccnc1Nc1nnc(-c2ccc(OC3CCOCC3)cn2)s1 [Compound 4, 3-Methyl-N-{5-[5-(oxan-4-yloxy)pyridin-2-yl]-1,3,4-thiadiazol-2-yl}pyridin-2-amine] | 2.6 µM | 89 % remaining | 0.4 µM (≈ 0.148 µg/mL) | 100 % remaining | 2.8 µM | > 12 µM | 2.7 |  |  | 
3 | Cc1cccnc1Nc1nsc(-c2ccc(OC3CCOCC3)cn2)n1 [Compound 5, N-(3-Methylpyridin-2-yl)-5-(5-((tetrahydro-2h-pyran-4-yl)oxy)pyridin-2-yl)-1,2,4-thiadiazol-3-amine] |  | 89 % remaining | 182 µM (≈ 67.2 µg/mL) | 77 % remaining |  |  | 2.15 |  |  | 
4 | Cc1cccnc1Nc1nnc(-c2ccc(OC3CCOCC3)cn2)o1 [Compound 7, (3-Methyl-pyridin-2-yl)-{5-[5-(tetrahydro-pyran-4-yloxy)-pyridin-2-yl]-[1,3,4]oxadiazol-2-yl}-amine] | 0.94 µM | 39 % remaining | 12.8 µM (≈ 4.52 µg/mL) | 83 % remaining | 6.5 µM | 0.935 µM | 1.55 |  |  | 
5 | Cc1cccnc1Nc1n[nH]c(-c2ccc(OC3CCOCC3)cn2)n1 [Compound 8, 3-Methyl-N-{5-[5-(oxan-4-yloxy)pyridin-2-yl]-4H-1,2,4-triazol-3-yl}pyridin-2-amine] | 0.01 µM |  | 202 µM (≈ 71.1 µg/mL) | 92 % remaining | 0.004 µM | 0.009 µM | 2 |  |  | Rat Microsomes, (m) ([7]; Table 1, tested in the mouse not rat): 70 (m)^e % remaining
6 | Cc1cccnc1Nc1nc(-c2cc(C(=O)N(C)C)c(OC(C)C)cn2)ns1 [Compound 17] | 0.63 µM |  | 154 µM (≈ 61.6 µg/mL) | 91 % remaining | 0.5 µM | 0.626 µM | 2.3 | 90 % remaining | 2.3 | 
7 | CC(C)Oc1cnc(-c2nsc(Nc3ncccc3C(C)C)n2)cc1C(F)(F)F [Compound 24, 3-(5-Isopropoxy-4-(trifluoromethyl)pyridin-2-yl)-N-(3-isopropylpyridin-2-yl)-1,2,4-thiadiazol-5-amine] | 0.05 µM |  | 1.05 µM (≈ 0.445 µg/mL) | 97 % remaining | 0.75 µM | 0.051 µM | 2.9 | 96 % remaining | 2.9 | EC50 ([1]; read-out: O. gutturosa EC50, adult worm motility, bound stated): < 0.1 µM
8 | CC(C)Oc1cnc(-c2nsc(Nc3ncccc3N(C)C)n2)cc1C(F)(F)F [Compound 34] | 0.04 µM |  |  | 98 % remaining | 0.53 µM | 0.036 µM | 2.9 | 93 % remaining | 2.9 | fold less soluble than 47 ([3]; 24 h): 10 fold
9 | Cc1cccnc1Nc1nc(-c2ncc(OC(C)C)cn2)ns1 [Compound 40, 3-(5-Isopropoxypyrimidin-2-yl)-N-(3-methylpyridin-2-yl)-1,2,4-thiadiazol-5-amine] | 2.35 µM |  | 12.3 µM (≈ 4.04 µg/mL) | 96^c % remaining | 2.9 µM |  | 2.9 | 90^c % remaining | 2.9 | 
10 | CC(C)Oc1ccc(-c2nsc(Nc3ncccc3C(N)=O)n2)nc1 [Compound 59, 2-((3-(5-Isopropoxypyridin-2-yl)-1,2,4-thiadiazol-5-yl)amino)nicotinamide] | 2.6 µM |  | 0.3 µM (≈ 0.107 µg/mL) |  | 3.4 µM |  | 1.6 |  | 1.6 | Papp A→B (P-glycoprotein (MDR1)): 0.79 ×10⁻⁶ cm/s; Papp A→B (P-gp (MDR1)): 0.8 ×10⁻⁶ cm/s; IC50 [8]: > 30000 nM
11 | Flubendazole [FBZ, reference compound] |  |  |  |  |  |  |  |  |  | adult worm burden reduction ([9]; jirds infected SC with 40 L3 larvae (Fig 2C)): -100%; reduction of adult worm burden ([9]; patent, naturally infected jirds): -100%; adult worm burden reduction [10]: -98.8% and -100%
